Laboratory results as given in the supplement of paper PMC10331698.
± gives the standard deviation of the averaged measurements.

Columns and labels:
Experiment in all cases: level (log10 ratio to DMSO vehicle control); higher = higher biomarker level / cell amount than vehicle control
[1] = compound: FC(F)(F)C(F)(C(F)(F)F)C(F)(F)C(F)(F)CC1CO1 [3-(Perfluoro-3-methylbutyl)-1,2-propenoxide]; details: in DMSO
Method: (§1)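 BioMAP Diversity Plus panel of 12 human primary cell co-culture systems (3C, 4H, LPS, SAg, BT, BF4T, BE3C, CASM3C, HDF3CGF, KF3CT, MyoF, Mphg). Compounds were added 1 h before stimulation and left for 24 h (MyoF 48 h; BT 72 h for soluble read-outs or 6 d for IgG). Biomarkers were read by ELISA, cytotoxicity by SRB, PBMC viability and proliferation by Alamar Blue. Each well value was divided by the mean of 8 DMSO control wells on the same plate and log10 transformed; duplicate blinded samples were tested at 4 concentrations.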

[2] = compound: FC(F)(F)C(F)(F)C(F)(F)C(F)(F)C(F)(F)C(F)(F)C(F)(F)C(F)(F)CCS [2-(Perfluorooctyl)ethanthiol]; details: in DMSO
Method: as §1

[3] = compound: FC(F)(F)C(F)(F)C(F)(F)C(F)(F)C(F)(F)C(F)(F)I [Perfluoro-1-iodohexane]; details: in DMSO
Method: as §1

[4] = compound: O=C(O)C(F)(F)C(F)(F)C(F)(F)C(F)(F)C(F)(F)C(F)(F)C(F)(F)C(F)F [9-H-Perfluorononanoic acid]; details: in DMSO
Method: as §1

[5] = compound: O=C(O)C(F)(F)C(F)(F)C(F)(F)C(F)(F)C(F)(F)C(F)(F)F [Perfluoroheptanoic acid]; details: in DMSO
Method: as §1

[6] = compound: O=C(O)C(F)(F)C(F)(F)C(F)(F)F [Perfluorobutanoic acid]; details: in DMSO
Method: as §1

[7] = compound: O=C(O)C(F)(F)C(F)(F)C(F)F [4H-Perfluorobutanoic acid]; details: in DMSO
Method: as §1

[8] = compound: OCCCC(F)(F)C(F)(F)C(F)(F)C(F)(F)C(F)(F)C(F)(F)C(F)(F)F [7:3 Fluorotelomer alcohol]; details: 6700 nM; in DMSO
Method: as §1

| Test System | level (log10) ([1]; 6700 nM) | level (log10) ([1]; 20000 nM) | level (log10) ([2]; 6700 nM) | level (log10) ([2]; 20000 nM) | level (log10) ([3]; 6700 nM) | level (log10) ([3]; 20000 nM) | level (log10) ([3]; 60000 nM) | level (log10) ([4]; 6700 nM) | level (log10) ([4]; 20000 nM) | level (log10) ([4]; 60000 nM) | level (log10) ([5]; 6700 nM) | level (log10) ([5]; 20000 nM) | level (log10) ([5]; 60000 nM) | level (log10) ([6]; 6700 nM) | level (log10) ([6]; 20000 nM) | level (log10) ([6]; 60000 nM) | level (log10) ([7]; 6700 nM) | level (log10) ([7]; 20000 nM) | level (log10) ([7]; 60000 nM) | level (log10) [8] |
| --- | --- | --- | --- | --- | --- | --- | --- | --- | --- | --- | --- | --- | --- | --- | --- | --- | --- | --- | --- | --- |
| LPS:CD106/VCAM-1 | -0.0085 ± 0.019 | 0.015 ± 0.013 | -0.007 ± 0.04 | -0.0225 ± 0.005 | -0.031 ± 0.0057 | -0.0145 ± 0.018 | -0.029 ± 0.0028 | -0.0165 ± 0.013 | -0.006 ± 0.0028 | 0.0075 ± 0.033 | -0.014 ± 0.021 | -0.0155 ± 0.025 | -0.013 ± 0.025 | -0.0095 ± 0.0021 | -0.0075 ± 0.0021 | -0.027 ± 0.033 | -0.018 ± 0.0071 | -0.0245 ± 0.011 | -0.002 ± 0.025 | -0.031 ± 0.0085 |
| BE3C:CXCL8/IL-8 | 0.011 | 0.0205 ± 0.023 | 0.04 ± 0.073 | 0.0135 ± 0.093 | 0.011 ± 0.033 | 0.021 ± 0.028 | 0.052 ± 0.033 | 0.0255 ± 0.084 | 0.0435 ± 0.059 | 0.0385 ± 0.023 | 0.033 ± 0.041 | 0.008 ± 0.042 | 0.0205 ± 0.1 | 0.0155 ± 0.022 | 0.01 ± 0.014 | 0.0155 ± 0.005 | 0.015 ± 0.099 | 0.0165 ± 0.044 | 0.0695 ± 0.071 | 0.006 ± 0.0028 |
| BF4T:CXCL8/IL-8 | 0.0045 ± 0.015 | 0.014 ± 0.03 | 0.0625 ± 0.037 | 0.0505 ± 0.05 | 0.0175 ± 0.021 | -0.009 ± 0.058 | 0.016 ± 0.058 | 0.0365 ± 0.021 | 0.038 ± 0.023 | 0.0565 ± 0.016 | 0.017 ± 0.028 | 0.0155 ± 0.013 | 0.0145 ± 0.036 | 0.0005 ± 0.012 | 0.004 ± 0.0014 | 0.0095 ± 0.033 | 0.0385 ± 0.0078 | 0.046 ± 0.024 | 0.0445 ± 0.04 | 0.0165 ± 0.029 |
| LPS:M-CSF | -0.0005 ± 0.019 | 0.021 ± 0.038 | 0.0095 ± 0.0035 | -0.0035 ± 0.0092 | 0.0135 ± 0.019 | -0.0055 ± 0.05 | -0.003 ± 0.025 | -0.025 ± 0.04 | -0.0085 ± 0.016 | 0.0525 ± 0.044 | -0.028 ± 0.024 | -0.008 ± 0.018 | -0.007 ± 0.038 | 0.004 ± 0.014 | -0.005 ± 0.016 | 0.003 ± 0.03 | -0.001 ± 0.042 | -0.007 ± 0.014 | -0.003 ± 0.035 | -0.006 ± 0.025 |
| BT:sIL-6 | 0.0275 ± 0.043 | -0.0215 ± 0.005 | 0.011 ± 0.042 | -0.02 ± 0.041 | 0.0615 ± 0.0035 | 0.028 ± 0.057 | 0.039 ± 0.045 | -0.0315 ± 0.0064 | 0.06 ± 0.064 | -0.0215 ± 0.079 | 0.02 ± 0.065 | 0.0175 ± 0.044 | -0.0375 ± 0.071 | 0.019 ± 0.064 | 0.055 ± 0.033 | -0.0415 ± 0.088 | -0.008 | -0.046 ± 0.031 | -0.0915 ± 0.026 | -0.0125 ± 0.073 |
| BF4T:CCL2/MCP-1 | -0.011 ± 0.011 | -0.0035 ± 0.0092 | -0.0265 ± 0.029 | -0.031 ± 0.03 | -0.002 ± 0.025 | -0.024 ± 0.025 | -0.0315 ± 0.028 | -0.164 ± 0.011 | -0.19 ± 0.0057 | -0.122 ± 0.036 | 0.0155 ± 0.056 | 0.019 ± 0.067 | 0.0365 ± 0.12 | 0.004 ± 0.038 | 0.017 ± 0.0057 | 0.006 ± 0.0071 | -0.012 ± 0.0085 | 0.004 ± 0.011 | 0.0475 ± 0.069 | -0.0115 ± 0.019 |
| 3C:CXCL9/MIG | -0.011 ± 0.0042 | -0.0025 ± 0.005 | 0.002 | 0.0115 ± 0.005 | 0.0045 ± 0.025 | 0.007 ± 0.014 | 0.0075 ± 0.029 | -0.013 ± 0.0071 | 0.0095 ± 0.00071 | 0.0045 ± 0.0021 | 0.0115 ± 0.0035 | -0.01 ± 0.0071 | 0.0135 ± 0.0078 | -0.003 ± 0.0042 | -0.0015 ± 0.011 | 0.0085 ± 0.0078 | 0.005 ± 0.0042 | 0.0035 ± 0.013 | 0.012 ± 0.0014 | -0.0135 ± 0.0035 |
| BE3C:CXCL9/MIG | -0.005 ± 0.0042 | -0.0035 ± 0.005 | -0.0085 ± 0.011 | -0.001 ± 0.011 | 0.0085 ± 0.0035 | -0.002 ± 0.0071 | -0.0035 ± 0.018 | -0.0255 ± 0.005 | -0.0285 ± 0.005 | -0.02 ± 0.0099 | 0 ± 0.0014 | 0.0065 ± 0.011 | 0.012 ± 0.017 | 0.002 ± 0.0071 | -0.004 ± 0.013 | -0.0005 ± 0.00071 | -0.0015 ± 0.011 | 0.0085 ± 0.022 | 0.0135 ± 0.0092 | -0.0015 ± 0.0021 |
| BF4T:MMP-9 | 0.0085 ± 0.005 | -0.0125 ± 0.026 | -0.047 ± 0.0099 | -0.057 ± 0.013 | -0.0005 ± 0.015 | -0.011 ± 0.0042 | -0.021 ± 0.034 | -0.073 ± 0.045 | -0.039 ± 0.0071 | -0.004 ± 0.0014 | 0.0145 ± 0.016 | 0.0445 ± 0.022 | 0.103 ± 0.054 | 0.006 ± 0.045 | 0.006 ± 0.059 | 0.022 ± 0.059 | -0.018 ± 0.028 | -0.0245 ± 0.036 | -0.008 ± 0.038 | -0.0235 ± 0.018 |
| 4H:CD87/uPAR | -0.005 ± 0.027 | 0.0075 ± 0.04 | -0.0055 ± 0.0021 | -0.0165 ± 0.0021 | -0.0035 ± 0.053 | 0.017 ± 0.062 | 0.036 ± 0.12 | 0.002 ± 0.037 | 0.027 ± 0.017 | 0.019 ± 0.013 | 0.0355 ± 0.042 | -0.007 ± 0.054 | 0.061 ± 0.14 | -0.013 ± 0.0071 | -0.0125 ± 0.029 | -0.041 ± 0.0071 | -0.0265 ± 0.025 | -0.0065 ± 0.0035 | -0.004 ± 0.044 | 0.0105 ± 0.015 |
| SAg:SRB | -0.006 ± 0.023 | -0.0025 ± 0.0021 | 0.002 ± 0.0014 | -0.004 ± 0.0014 | -0.0075 ± 0.011 | -0.002 ± 0.0014 | -0.0045 ± 0.011 | -0.002 ± 0.025 | -0.003 ± 0.013 | -0.036 ± 0.0071 | -0.0155 ± 0.013 | 0.001 ± 0.011 | -0.0385 ± 0.016 | -0.013 ± 0.03 | -0.005 ± 0.02 | -0.0075 ± 0.011 | -0.0055 ± 0.0078 | -0.0145 ± 0.0021 | 0 ± 0.0028 | 0.0045 ± 0.013 |
| LPS:CCL2/MCP-1 | -0.01 ± 0.0057 | 0.005 ± 0.024 | 0.018 | 0.026 ± 0.013 | -0.0025 ± 0.005 | -0.009 ± 0.0014 | 0.0015 ± 0.032 | -0.0165 ± 0.005 | -0.0055 ± 0.0021 | 0.0405 ± 0.025 | -0.0025 ± 0.021 | -0.005 ± 0.0028 | 0.032 ± 0.011 | -0.011 ± 0.011 | -0.01 ± 0.011 | 0.0085 ± 0.025 | -0.0195 ± 0.0021 | -0.007 ± 0.0042 | 0.017 ± 0.054 | -0.026 ± 0.023 |
| BT:sIL-17F | 0.0485 ± 0.028 | -0.0345 ± 0.093 | -0.068 ± 0.055 | 0.092 ± 0.062 | 0.0035 ± 0.015 | 0.041 ± 0.12 | 0.0815 ± 0.061 | 0.0055 ± 0.0064 | 0.0945 ± 0.035 | 0.031 ± 0.0085 | -0.0725 ± 0.13 | -0.023 ± 0.21 | -0.013 ± 0.045 | 0.081 ± 0.035 | 0.065 ± 0.0014 | -0.035 ± 0.024 | -0.0445 ± 0.005 | -0.067 ± 0.17 | -0.0165 ± 0.036 | 0.0115 ± 0.056 |
| 3C:HLA-DR | 0.0085 ± 0.00071 | 0.018 ± 0.018 | -0.015 ± 0.018 | -0.0235 ± 0.0078 | 0.0025 ± 0.0035 | -0.011 ± 0.0057 | -0.001 ± 0.017 | -0.005 ± 0.0028 | 0.0005 ± 0.0021 | 0.028 ± 0.02 | 0.006 ± 0.017 | 0.004 ± 0.013 | 0.034 ± 0.047 | -0.0035 ± 0.028 | -0.0215 ± 0.00071 | -0.0115 ± 0.021 | -0.003 ± 0.0057 | -0.013 ± 0.011 | 0.011 ± 0.014 | -0.002 ± 0.0057 |
